# Biological target: T1, Recombinant human HSD17B13 enzyme (Homo sapiens, UniProt Q7Z5P4)
# T1 sequence (Q7Z5P4 20-300): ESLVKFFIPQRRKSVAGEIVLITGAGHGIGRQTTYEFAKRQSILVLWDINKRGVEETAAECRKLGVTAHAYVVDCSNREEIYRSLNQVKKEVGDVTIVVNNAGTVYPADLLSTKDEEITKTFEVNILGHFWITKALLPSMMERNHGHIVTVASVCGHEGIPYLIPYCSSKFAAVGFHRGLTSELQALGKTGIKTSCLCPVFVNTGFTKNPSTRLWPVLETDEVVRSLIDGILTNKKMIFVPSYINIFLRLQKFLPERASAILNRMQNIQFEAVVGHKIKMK
# Test: HSD17b13 NAD(P)H-Glo biochemical assay
# Settings: 50 uM estradiol, 1 mM NAD+, NAD(P)H-Glo luminescence; read-out: HSD17β13 IC50
# Summary of the method: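 Recombinant human HSD17B13 in 20 mM Tris pH7.4 with 0.002% Tween-20 and 0.02% BSA was preincubated with inhibitor for 20 minutes at RT. The reaction ran 3 hours at 37° C with 50 uM estradiol and 1 mM NAD+ (final). NADH formed was detected by NAD(P)H-Glo luminescence after 1 hour at RT.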
row,Compound,IC50
1,"CN1CCC2(CC1)CN(c1ncc3c(-c4cc(C(F)(F)F)c(F)c(O)c4F)nn(C)c3n1)CCO2 [Compound 18.41, 2,6-Difluoro-3-(1-methyl-6-(9-methyl-1-oxa-4,9-diazaspiro[5.5]undecan-4-y1)-1H-pyrazolo[3,4-d]pyrimidin-3-y1)-5-(trifluoromethyl)phenol]",100 to 1000 nM
2,"Cn1nc(-c2cc(C(F)(F)F)c(F)c(O)c2F)c2cnc(N3CCOCC3C3CCOCC3)nc21 (stereo not shown) [Compound 18.42, 2,6-Difluoro-3-(1-methyl-6-(3-(tetrahydro-2H-pyran-4-yl)morpholino)-1H-pyrazolo[3,4-d]pyrimidin-3-y1)-5-(trifluoromethyl)phenol]",< 100 nM
3,"CN1CCC2(CC1)CCN(c1ncc3c(-c4cc(C(F)(F)F)c(F)c(O)c4F)nn(C)c3n1)CC2 [Compound 18.47, 2,6-Difluoro-3-(1-methyl-6-(9-methyl-3,9-diazaspiro[5.5]undecan-3-y1)-1H-pyrazolo[3,4-d]pyrimidin-3-y1)-5-(trifluoromethyl)phenol]",< 100 nM
4,"Cn1nc(-c2cc(C(F)(F)F)c(F)c(O)c2F)c2cnc(N3CCOC(C4CCOCC4)C3)nc21 (stereo not shown) [Compound 18.49, 2,6-Difluoro-3-(1-methyl-6-(2-(tetrahydro-2H-pyran-4-yl)morpholino)-1H-pyrazolo[3,4-d]pyrimidin-3-y1)-5-(trifluoromethyl)phenol]",< 100 nM
5,"Cn1nc(-c2cc(C(F)(F)F)c(F)c(O)c2F)c2cnc(N3CCOC(c4nnn[nH]4)C3)nc21 (stereo not shown) [Compound 18.50, 3-(6-(2-(1H-Tetrazol-5-yl)morpholino)-1-methyl-1H-pyrazolo[3,4-d]pyrimidin-3-y1)-2,6-difluoro-5-(trifluoromethyl)phenol]",1000 to 30000 nM
6,"Cc1nnc(C2CN(c3ncc4c(-c5cc(C(F)(F)F)c(F)c(O)c5F)nn(C)c4n3)CCO2)o1 (stereo not shown) [Compound 18.52, 2,6-Difluoro-3-(1-methyl-6-(2-(5-methyl-1,3,4-oxadiazol-2-y1)morpholino)-1H-pyrazolo[3,4-d]pyrimidin-3-y1)-5-(trifluoromethyl)phenol]",100 to 1000 nM
7,"Cn1nc(-c2cc(C(F)(F)F)c(F)c(O)c2F)c2cnc(N3CCS(=O)(=O)C(C)(C)C3)nc21 [Compound 18.54, 4-(3-(2,4-Difluoro-3-hydroxy-5-(trifluoromethyl)phenyl)-1-methyl-1H-pyrazolo[3,4-d]pyrimidin-6-yl)-2,2-dimethylthiomorpholine 1,1-dioxide]",< 100 nM
8,"Cn1nc(-c2cc(C(F)(F)F)c(F)c(O)c2F)c2cnc(N3CCOC(CC(=O)O)C3)nc21 (stereo not shown) [Compound 18.57, 2-(4-(3-(2,4-Difluoro-3-hydroxy-5-(trifluoromethyl)phenyl)-1-methyl-1H-pyrazolo[3,4-d]pyrimidin-6-yl)morpholin-2-yl)acetic Acid]",1000 to 30000 nM
9,"Cn1nc(-c2cc(C(F)(F)F)c(F)c(O)c2F)c2cnc(N3CCOC(C4CC4)C3)nc21 (stereo not shown) [Compound 18.59, 3-(6-(2-Cyclopropylmorpholino)-1-methyl-1H-pyrazolo[3,4-d]pyrimidin-3-y1)-2,6-difluoro-5-(trifluoromethyl)phenol]",< 100 nM
10,"Cn1nc(-c2cc(C(F)(F)F)c(F)c(O)c2F)c2cnc(N3CCC(N4CCOCC4)CC3)nc21 [Compound 18.60, 2,6-Difluoro-3-(1-methyl-6-(4-morpholinopiperidin-1-yl)-1H-pyrazolo[3,4-d]pyrimidin-3-y1)-5-(trifluoromethyl)phenol]",100 to 1000 nM
11,"Cn1nc(-c2cc(C(F)(F)F)c(F)c(O)c2F)c2cnc(N3CCN(S(C)(=O)=O)C4(CC4)C3)nc21 [Compound 18.62, 2,6-Difluoro-3-(1-methyl-6-(4-(methylsulfony1)-4,7-diazaspiro [2.5]octan-7-y1)-1H-pyrazolo[3,4-d]pyrimidin-3-y1)-5-(trifluoromethyl)phenol]",< 100 nM
12,"Cn1nc(-c2cc(C(F)(F)F)c(F)c(O)c2F)c2cnc(N3CCN(S(C)(=O)=O)C4(CCC4)C3)nc21 [Compound 18.63, 2,6-Difluoro-3-(1-methyl-6-(5-(methylsulfony1)-5,8-diazaspiro[3.5]nonan-8-yl)-1H-pyrazolo[3,4-d]pyrimidin-3-y1)-5-(trifluoromethyl)phenol]",< 100 nM
13,"Cn1nc(-c2cc(C(F)(F)F)c(F)c(O)c2F)c2cnc(N3CCN(S(C)(=O)=O)C(C)(C)C3)nc21 [Compound 18.64, 3-(6-(3,3-Dimethyl-4-(methylsulfonyl)piperazin-1-y1)-1-methyl-1H-pyrazolo[3,4-d]pyrimidin-3-y1)-2,6-difluoro-5-(trifluoromethyl)phenol]",< 100 nM
14,"CC(C)C1(O)CCN(c2ncc3c(-c4cc(C(F)(F)F)c(F)c(O)c4F)nn(C)c3n2)CC1 [Compound 18.67, 1-(3-(2,4-Difluoro-3-hydroxy-5-(trifluoromethyl)phenyl)-1-methyl-1H-pyrazolo[3,4-d]pyrimidin-6-yl)-4-isopropylpiperidin-4-ol]",< 100 nM

# The next lines start with the values.
row,IC50,Compound
1,100 to 1000 nM,"Cn1nc(-c2cc(C(F)(F)F)c(F)c(O)c2F)c2cnc(N3CCOCC3CC(=O)O)nc21 (stereo not shown) [Compound 18.40, 2-(4-(3-(2,4-Difluoro-3-hydroxy-5-(trifluoromethyl)phenyl)-1-methyl-1H-pyrazolo[3,4-d]pyrimidin-6-yl)morpholin-3-yl)acetic Acid]"
2,1000 to 30000 nM,"Cn1nc(-c2cc(C(F)(F)F)c(F)c(O)c2F)c2cnc(N3CCOC(C(=O)O)C3)nc21 (stereo not shown) [Compound 18.43, 4-(3-(2,4-Difluoro-3-hydroxy-5-(trifluoromethyl)phenyl)-1-methyl-1H-pyrazolo[3,4-d]pyrimidin-6-yl)morpholine-2-carboxylic Acid]"
3,< 100 nM,"Cn1nc(-c2cc(C(F)(F)F)c(F)c(O)c2F)c2cnc(N3CCC(c4ccccc4)CC3)nc21 [Compound 18.44, 2,6-Difluoro-3-(1-methyl-6-(4-phenylpiperidin-1-y1)-1H-pyrazolo[3,4-d]pyrimidin-3-y1)-5-(trifluoromethyl)phenol]"
4,100 to 1000 nM,"CN(C)C1CCCN(c2ncc3c(-c4cc(C(F)(F)F)c(F)c(O)c4F)nn(C)c3n2)C1 (stereo not shown) [Compound 18.45, 3-(6-(3-(Dimethylamino)piperidin-1-y1)-1-methyl-1H-pyrazolo[3,4-d]pyrimidin-3-y1)-2,6-difluoro-5-(trifluoromethyl)phenol]"
5,< 100 nM,"Cn1nc(-c2cc(C(F)(F)F)c(F)c(O)c2F)c2cnc(N3CCOCC3c3ccccc3)nc21 (stereo not shown) [Compound 18.46, 2,6-Difluoro-3-(1-methyl-6-(3-phenylmorpholino)-1H-pyrazolo[3,4-d]pyrimidin-3-y1)-5-(trifluoromethyl)phenol]"
6,< 100 nM,"Cn1nc(-c2cc(C(F)(F)F)c(F)c(O)c2F)c2cnc(N3CCOC(c4ccccn4)C3)nc21 (stereo not shown) [Compound 18.48, 2,6-Difluoro-3-(1-methyl-6-(2-(pyridin-2-yl)morpholino)-1H-pyrazolo[3,4-d]pyrimidin-3-y1)-5-(trifluoromethyl)phenol]"
7,< 100 nM,"Cn1nccc1C1CN(c2ncc3c(-c4cc(C(F)(F)F)c(F)c(O)c4F)nn(C)c3n2)CCO1 (stereo not shown) [Compound 18.51, 2,6-Difluoro-3-(1-methyl-6-(2-(1-methyl-1H-pyrazol-5-yl)morpholino)-1H-pyrazolo[3,4-d]pyrimidin-3-y1)-5-(trifluoromethyl)phenol]"
8,< 100 nM,"CN1CCN(c2ncc3c(-c4cc(C(F)(F)F)c(F)c(O)c4F)nn(C)c3n2)C(c2ccccc2)C1 (stereo not shown) [Compound 18.53, 2,6-Difluoro-3-(1-methyl-6-(4-methyl-2-phenylpiperazin-1-yl)-1H-pyrazolo[3,4-d]pyrimidin-3-yl)-5-(trifluoromethyl)phenol]"
9,< 100 nM,"Cn1nc(-c2cc(C(F)(F)F)c(F)c(O)c2F)c2cnc(N3CCOC(c4cccnc4)C3)nc21 (stereo not shown) [Compound 18.55, 2,6-Difluoro-3-(1-methyl-6-(2-(pyridin-3-y1)morpholino)-1H-pyrazolo[3,4-d]pyrimidin-3-y1)-5-(trifluoromethyl)phenol]"
10,< 100 nM,"Cn1nc(-c2cc(C(F)(F)F)c(F)c(O)c2F)c2cnc(N3CCOC(c4ccncc4)C3)nc21 (stereo not shown) [Compound 18.56, 2,6-Difluoro-3-(1-methyl-6-(2-(pyridin-4-y1)morpholino)-1H-pyrazolo[3,4-d]pyrimidin-3-y1)-5-(trifluoromethyl)phenol]"
11,< 100 nM,"Cn1cc(C2CN(c3ncc4c(-c5cc(C(F)(F)F)c(F)c(O)c5F)nn(C)c4n3)CCO2)cn1 (stereo not shown) [Compound 18.58, 2,6-Difluoro-3-(1-methyl-6-(2-(1-methyl-1H-pyrazol-4-yl)morpholino)-1H-pyrazolo[3,4-d]pyrimidin-3-y1)-5-(trifluoromethyl)phenol]"
12,< 100 nM,"COC1(C)CCN(c2ncc3c(-c4cc(C(F)(F)F)c(F)c(O)c4F)nn(C)c3n2)CC1 [Compound 18.61, 2,6-Difluoro-3-(6-(4-methoxy-4-methylpiperidin-1-yl)-1-methyl-1H-pyrazolo[3,4-d]pyrimidin-3-yl)-5-(trifluoromethyl)phenol]"
13,< 100 nM,"Cn1nc(-c2cc(C(F)(F)F)c(F)c(O)c2F)c2cnc(N3CCC(C)(O)CC3)nc21 [Compound 18.65, 1-(3-(2,4-Difluoro-3-hydroxy-5-(trifluoromethyl)phenyl)-1-methyl-1H-pyrazolo[3,4-d]pyrimidin-6-yl)-4-methylpiperidin-4-ol]"
14,< 100 nM,"CCC1(O)CCN(c2ncc3c(-c4cc(C(F)(F)F)c(F)c(O)c4F)nn(C)c3n2)CC1 [Compound 18.66, 1-(3-(2,4-Difluoro-3-hydroxy-5-(trifluoromethyl)phenyl)-1-methyl-1H-pyrazolo[3,4-d]pyrimidin-6-yl)-4-ethylpiperidin-4-ol]"

# — patent publication US20240083861A1, “HSD17B13 INHIBITORS AND USES THEREOF” (FL2022-001, Inc., priority 2020, published 2024)
